One molecule from patent US20180311220A1, “TREATMENT OF CANCERS WITH ACQUIRED RESISTANCE TO KIT INHIBITORS” (Bayer HealthCare LLC, priority 2007, published 2018) can be followed below.

Assay type in all cases: cell-based, murine
The subject of assay [1] is Ba/F3 cells expressing human c-KIT exon 11 deletion + T6701. Kind of assay: Ba/F3 cell proliferation assay (CellTiter-Glo), c-KIT exon 11 deletion + T6701. The following applies: BaF3; Exon 11 +T6701; n ≥ 3; 72 h incubation; read-out: Average IC50 for c-KIT-expressing Ba/F3 cellular proliferation, Exon 11 +T6701. As to the method: (§1) The cDNA encoding full length human c-KIT with a deletion in exon 11 that removed amino acid residues 557-558 was ligated into the mammalian expression vector pClneo (Promega). […] All mutations were confirmed by DNA sequencing.
(§2) Selective pressure was applied to the transfected cells by removing IL-3 from the culture medium. After IL-independent populations, further selective pressure was applied by also growing the cells in the presence of 1 mg/mL G418. […] The stable pools were further characterized by sequencing genomic DNA to confirm the presence of the transfected c-KIT cDNA.
(§3) This assay utilizes cellular ATP as a marker for cell proliferation/viability. On day 1, Ba/F3 cells were plated in 96 well dishes (Costar 3603) at 10,000 cells per well in 10% FBS in RPMI medium with 1 mg/ml G418. […] Plates were then incubated in a 5% CO2 incubator at 37° C. for 3 days. […] The cells were then incubated on a shaker for 5 minutes at room temperature, and luminescence was measured on a Victor 5 (Perkin Elmer) spectrophotometer.
(§4) Growth inhibition was measured by comparing luminescence signal from treated vs. untreated cells in assay plates, and the IC50 analysis of cell proliferation inhibition by compounds was analyzed using Analyze 5 in-house software. The IC50 values are mean values calculated from at least three experiments.
A general note: Cellular ATP, detected with luciferase, serves as a proxy for viable cell number.

Assay [2] relates to Ba/F3 cells expressing human c-KIT exon 11 deletion + D816G. Kind of assay: Ba/F3 cell proliferation assay (CellTiter-Glo), c-KIT exon 11 deletion + D816G. The note with it: BaF3; Exon 11 + D816G; n ≥ 3; 72 h incubation; read-out: Average IC50 for c-KIT-expressing Ba/F3 cellular proliferation, Exon 11 + D816G. As to the method: as §1, §2, §3, §4
For assay [3], the system named is Ba/F3 cells expressing human c-KIT exon 11 deletion + N822K. The assay can be described thus: Ba/F3 cell proliferation assay (CellTiter-Glo), c-KIT exon 11 deletion + N822K. The note with it: BaF3; Exon 11 + N822K; n ≥ 3; 72 h incubation; read-out: Average IC50 for c-KIT-expressing Ba/F3 cellular proliferation, Exon 11 + N822K. As to the method:
as §1, §2, §3, §4

Assay [4] concerns Ba/F3 cells expressing human c-KIT with exon 11 deletion (residues 557-558). The assay can be described thus: Ba/F3 cell proliferation assay (CellTiter-Glo), c-KIT exon 11 deletion. The following applies: BaF3, n ≥ 3, 72 h incubation, read-out: Average IC50 for c-KIT-expressing Ba/F3 cellular proliferation, Exon 11 Deletion. As to the method:
as §1, §2, §3, §4

In assay [5] the test system is Ba/F3 cells expressing human c-KIT exon 11 deletion + V654A. Kind of assay: Ba/F3 cell proliferation assay (CellTiter-Glo), c-KIT exon 11 deletion + V654A. The following applies: BaF3; Exon 11 + V654A; n ≥ 3; 72 h incubation; read-out: Average IC50 for c-KIT-expressing Ba/F3 cellular proliferation, Eson 11 + V654A. As to the method: as §1, §2, §3, §4
Assay [6] deals with Ba/F3 cells expressing human c-KIT exon 11 deletion + Y823D. The assay can be described thus: Ba/F3 cell proliferation assay (CellTiter-Glo), c-KIT exon 11 deletion + Y823D. The following applies: BaF3; Exon 11 + Y823D; n ≥ 3; 72 h incubation; read-out: Average IC50 for c-KIT-expressing Ba/F3 cellular proliferation, Exon 11 + Y823D. As to the method: as §1, §2, §3, §4

As to `CNC(=O)c1cc(Oc2ccc(NC(=O)Nc3ccc(Cl)c(C(F)(F)F)c3)c(F)c2)ccn1` [DAST, 4{4-[3-(4-chloro-3-trifluoromethylphenyl)-ureido]-3-fluorophenoxy}-pyridine-2-carboxylic acid methylamide], the IC50 in assay [1] is 19 nM; in assay [2] it was 14 nM; in assay [3], 12 nM; in assay [4], 7 nM; in assay [5] it was 38 nM; in assay [6], 129 nM.
